Assay results as given in PMC9569420 (Communications Biology, 2022).
“And” between values parts separate entries of the source, which are not always exact repeats. Equal entries are not always repeated.

Legend:
mTOR/FRAP1 = biological target: T1, mTOR/FRAP1 (Homo sapiens, UniProt P42345); experiment: HotSpot kinase assay; assay type: biochemical; settings: read-out: % Enzyme Activity (relative to DMSO controls)
T1 construct: purchased Reaction Biology Corporation

ALK4/ACVR1B = biological target: T2, ALK4/ACVR1B (Homo sapiens, UniProt P36896); experiment: HotSpot kinase assay; assay type: biochemical; settings: read-out: % Enzyme Activity (relative to DMSO controls)
T2 construct: purchased Reaction Biology Corporation
T2 sequence (P36896 24-505): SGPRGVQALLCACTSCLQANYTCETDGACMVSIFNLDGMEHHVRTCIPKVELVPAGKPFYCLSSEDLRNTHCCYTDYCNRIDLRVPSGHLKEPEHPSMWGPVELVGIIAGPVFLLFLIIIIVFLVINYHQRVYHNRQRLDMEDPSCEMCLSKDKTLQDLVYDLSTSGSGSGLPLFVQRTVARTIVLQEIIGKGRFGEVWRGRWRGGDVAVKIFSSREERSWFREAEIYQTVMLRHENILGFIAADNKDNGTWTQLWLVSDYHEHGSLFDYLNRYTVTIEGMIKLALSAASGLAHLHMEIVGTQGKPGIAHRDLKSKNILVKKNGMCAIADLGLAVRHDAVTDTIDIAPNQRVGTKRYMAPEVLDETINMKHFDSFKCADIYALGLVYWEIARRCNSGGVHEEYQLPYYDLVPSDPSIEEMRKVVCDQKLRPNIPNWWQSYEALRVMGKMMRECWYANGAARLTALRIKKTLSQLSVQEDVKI

TESK1 = biological target: T3, TESK1 (Homo sapiens, UniProt Q15569); experiment: HotSpot kinase assay; assay type: biochemical; settings: read-out: % Enzyme Activity (relative to DMSO controls)
T3 construct: purchased Reaction Biology Corporation
T3 sequence (Q15569 whole entry): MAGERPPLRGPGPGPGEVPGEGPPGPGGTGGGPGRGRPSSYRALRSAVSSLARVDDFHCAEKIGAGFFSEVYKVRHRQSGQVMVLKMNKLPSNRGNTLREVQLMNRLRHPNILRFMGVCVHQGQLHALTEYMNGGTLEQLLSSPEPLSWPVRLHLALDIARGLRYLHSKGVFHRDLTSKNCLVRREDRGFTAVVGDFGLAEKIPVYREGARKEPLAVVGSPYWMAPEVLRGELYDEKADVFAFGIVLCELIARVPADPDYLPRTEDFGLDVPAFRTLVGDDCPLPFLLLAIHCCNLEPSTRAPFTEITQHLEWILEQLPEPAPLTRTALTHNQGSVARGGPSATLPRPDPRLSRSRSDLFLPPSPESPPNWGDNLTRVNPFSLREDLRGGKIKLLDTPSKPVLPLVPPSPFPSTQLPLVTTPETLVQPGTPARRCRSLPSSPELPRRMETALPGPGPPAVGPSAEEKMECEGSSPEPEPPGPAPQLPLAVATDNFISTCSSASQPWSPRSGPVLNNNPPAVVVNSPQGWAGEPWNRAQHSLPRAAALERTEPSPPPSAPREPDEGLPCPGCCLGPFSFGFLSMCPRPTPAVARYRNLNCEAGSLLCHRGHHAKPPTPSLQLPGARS

LCK2/ICK = biological target: T4, LCK2/ICK (Homo sapiens, UniProt Q9UPZ9); experiment: HotSpot kinase assay; assay type: biochemical; settings: read-out: % Enzyme Activity (relative to DMSO controls)
T4 construct: purchased Reaction Biology Corporation

ROS/ROS1 = biological target: T5, ROS/ROS1 (Homo sapiens, UniProt P08922); experiment: HotSpot kinase assay; assay type: biochemical; settings: read-out: % Enzyme Activity (relative to DMSO controls)
T5 construct: purchased Reaction Biology Corporation

FLT1/VEGFR1 = biological target: T6, FLT1/VEGFR1 (Homo sapiens, UniProt P17948); experiment: HotSpot kinase assay; assay type: biochemical; settings: read-out: % Enzyme Activity (relative to DMSO controls)
T6 construct: purchased Reaction Biology Corporation

PDGFRb = biological target: T7, PDGFRb (Homo sapiens, UniProt P09619); experiment: HotSpot kinase assay; assay type: biochemical; settings: read-out: % Enzyme Activity (relative to DMSO controls)
T7 construct: purchased Reaction Biology Corporation

CK2a2 = biological target: T8, CK2a2 (Homo sapiens, UniProt P19784); experiment: HotSpot kinase assay; assay type: biochemical; settings: read-out: % Enzyme Activity (relative to DMSO controls)
T8 construct: purchased Reaction Biology Corporation
T8 sequence (P19784 whole entry): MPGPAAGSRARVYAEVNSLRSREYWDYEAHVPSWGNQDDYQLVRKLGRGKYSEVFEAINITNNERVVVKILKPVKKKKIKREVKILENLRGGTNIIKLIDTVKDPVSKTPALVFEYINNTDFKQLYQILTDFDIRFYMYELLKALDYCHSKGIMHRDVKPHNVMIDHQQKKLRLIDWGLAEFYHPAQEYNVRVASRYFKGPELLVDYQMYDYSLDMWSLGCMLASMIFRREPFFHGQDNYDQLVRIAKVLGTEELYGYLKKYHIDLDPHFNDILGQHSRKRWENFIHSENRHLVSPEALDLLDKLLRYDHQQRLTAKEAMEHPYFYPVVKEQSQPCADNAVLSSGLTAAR

STK39/STLK3 = biological target: T9, STK39/STLK3 (Homo sapiens, UniProt Q9UEW8); experiment: HotSpot kinase assay; assay type: biochemical; settings: read-out: % Enzyme Activity (relative to DMSO controls)
T9 construct: purchased Reaction Biology Corporation

PKCnu/PRKD3 = biological target: T10, PKCnu/PRKD3 (Homo sapiens, UniProt O94806); experiment: HotSpot kinase assay; assay type: biochemical; settings: read-out: % Enzyme Activity (relative to DMSO controls)
T10 construct: purchased Reaction Biology Corporation

LATS1 = biological target: T11, LATS1 (Homo sapiens, UniProt O95835); experiment: HotSpot kinase assay; assay type: biochemical; settings: read-out: % Enzyme Activity (relative to DMSO controls)
T11 construct: purchased Reaction Biology Corporation

VSV-S = assay type: cell-based, VSV pseudotyped with SARS-CoV-2 spike
LIMK1 = biological target: T12, LIMK1 (Homo sapiens, UniProt P53667); experiment: HotSpot kinase assay; assay type: biochemical; settings: read-out: % Enzyme Activity (relative to DMSO controls)
T12 construct: purchased Reaction Biology Corporation

HaCat cells = experiment: viability of confluent cells; assay type: cell-based, human; settings: 10 μM; for viability, odu as a percentage of the DMSO control: replicates (Fig 1c source data)
[1] = viability of confluent cells; assay type: cell-based, human; settings: human, HaCat cells at 90–100% confluence, 120 h, replicates (Fig 1c source data), read-out: viability, odu as a percentage of the DMSO control
CDK6/cyclin D1 = biological target: T13, CDK6/cyclin D1 (Homo sapiens, UniProt Q00534); experiment: HotSpot kinase assay; assay type: biochemical; settings: read-out: % Enzyme Activity (relative to DMSO controls)
T13 construct: purchased Reaction Biology Corporation

NEK1 = biological target: T14, NEK1 (Homo sapiens, UniProt Q96PY6); experiment: HotSpot kinase assay; assay type: biochemical; settings: read-out: % Enzyme Activity (relative to DMSO controls)
T14 construct: purchased Reaction Biology Corporation

CK2a = biological target: T15, CK2a (Homo sapiens, UniProt P68400); experiment: HotSpot kinase assay; assay type: biochemical; settings: 10µM; read-out: % Enzyme Activity (relative to DMSO controls)
T15 construct: purchased Reaction Biology Corporation
Description: Kinase activity were performed by Reaction Biology Corporation using the “HotSpot” assay platform modified from the published procedure.

CDK9/cyclin T2 = biological target: T16, CDK9/cyclin T2 (Homo sapiens, UniProt P50750); experiment: HotSpot kinase assay; assay type: biochemical; settings: read-out: % Enzyme Activity (relative to DMSO controls)
T16 construct: purchased Reaction Biology Corporation
T16 sequence (P50750 whole entry): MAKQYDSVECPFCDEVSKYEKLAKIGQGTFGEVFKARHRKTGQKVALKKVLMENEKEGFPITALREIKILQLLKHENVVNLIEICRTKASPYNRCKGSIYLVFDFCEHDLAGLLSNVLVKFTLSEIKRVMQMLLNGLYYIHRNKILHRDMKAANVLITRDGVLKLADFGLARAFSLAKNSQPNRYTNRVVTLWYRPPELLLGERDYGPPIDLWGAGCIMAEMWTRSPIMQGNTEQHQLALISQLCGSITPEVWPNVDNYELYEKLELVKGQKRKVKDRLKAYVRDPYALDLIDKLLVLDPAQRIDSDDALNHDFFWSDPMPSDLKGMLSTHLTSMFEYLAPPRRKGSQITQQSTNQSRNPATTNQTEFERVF
T16 sequence (O60583 whole entry partner): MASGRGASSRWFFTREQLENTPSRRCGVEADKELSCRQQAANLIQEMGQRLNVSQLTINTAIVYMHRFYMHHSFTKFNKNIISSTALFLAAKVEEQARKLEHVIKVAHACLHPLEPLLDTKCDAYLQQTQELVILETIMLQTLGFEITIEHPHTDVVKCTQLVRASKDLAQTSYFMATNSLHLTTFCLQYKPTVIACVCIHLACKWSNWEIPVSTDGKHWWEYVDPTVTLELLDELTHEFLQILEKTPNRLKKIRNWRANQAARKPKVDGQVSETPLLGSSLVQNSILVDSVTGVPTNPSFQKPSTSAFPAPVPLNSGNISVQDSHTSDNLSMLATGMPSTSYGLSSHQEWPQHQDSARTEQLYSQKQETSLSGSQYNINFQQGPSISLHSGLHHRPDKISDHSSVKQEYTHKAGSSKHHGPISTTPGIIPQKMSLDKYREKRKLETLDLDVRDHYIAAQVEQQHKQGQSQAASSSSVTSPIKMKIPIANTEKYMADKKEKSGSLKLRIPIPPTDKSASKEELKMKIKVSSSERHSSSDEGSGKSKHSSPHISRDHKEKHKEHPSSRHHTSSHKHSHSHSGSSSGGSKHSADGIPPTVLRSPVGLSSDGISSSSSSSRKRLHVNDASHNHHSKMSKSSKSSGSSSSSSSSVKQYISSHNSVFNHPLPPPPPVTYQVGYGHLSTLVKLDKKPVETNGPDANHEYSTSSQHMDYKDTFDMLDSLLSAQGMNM

PLSCR1 = PLSCR1 phosphorylation (IP/western), HSV-2 infected HaCaT cells; assay type: cell-based, human; settings: 10 μM, 30 min
CLK2 = biological target: T17, CLK2 (Homo sapiens, UniProt P49760); experiment: HotSpot kinase assay; assay type: biochemical; settings: read-out: % Enzyme Activity (relative to DMSO controls)
T17 construct: purchased Reaction Biology Corporation

BRSK2 = biological target: T18, BRSK2 (Homo sapiens, UniProt Q8IWQ3); experiment: HotSpot kinase assay; assay type: biochemical; settings: read-out: % Enzyme Activity (relative to DMSO controls)
T18 construct: purchased Reaction Biology Corporation
T18 sequence (Q8IWQ3 whole entry): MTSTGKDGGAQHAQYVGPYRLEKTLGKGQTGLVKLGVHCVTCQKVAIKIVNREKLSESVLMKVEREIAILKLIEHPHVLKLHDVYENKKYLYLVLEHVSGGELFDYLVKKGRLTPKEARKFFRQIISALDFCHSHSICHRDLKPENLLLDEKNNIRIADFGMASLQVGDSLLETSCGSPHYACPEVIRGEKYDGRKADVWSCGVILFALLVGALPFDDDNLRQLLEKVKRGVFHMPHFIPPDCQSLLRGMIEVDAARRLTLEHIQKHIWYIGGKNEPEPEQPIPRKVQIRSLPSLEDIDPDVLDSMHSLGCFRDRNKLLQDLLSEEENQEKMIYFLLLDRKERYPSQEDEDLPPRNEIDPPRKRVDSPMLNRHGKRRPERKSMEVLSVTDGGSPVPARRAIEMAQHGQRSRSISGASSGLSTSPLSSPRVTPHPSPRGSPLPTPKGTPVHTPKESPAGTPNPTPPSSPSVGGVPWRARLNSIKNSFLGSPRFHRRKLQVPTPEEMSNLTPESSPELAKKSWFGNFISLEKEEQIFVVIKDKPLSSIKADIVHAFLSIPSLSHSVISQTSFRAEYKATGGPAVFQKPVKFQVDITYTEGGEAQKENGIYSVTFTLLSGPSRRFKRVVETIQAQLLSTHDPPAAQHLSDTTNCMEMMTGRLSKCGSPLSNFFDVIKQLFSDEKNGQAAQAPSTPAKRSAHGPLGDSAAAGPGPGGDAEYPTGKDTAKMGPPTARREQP

GRK5 = biological target: T19, GRK5 (Homo sapiens, UniProt P34947); experiment: HotSpot kinase assay; assay type: biochemical; settings: read-out: % Enzyme Activity (relative to DMSO controls)
T19 construct: purchased Reaction Biology Corporation

HSV-2(G) = experiment: HSV plaque assay, primary vaginal cells; assay type: cell-based; settings: Human alphaherpesvirus 2, read-out: inhibition of HSV-2 infection
Description: After 48 h incubation, plaques were counted by immunoassay using an anti–human IgG antibody peroxidase conjugate (PA1-86064, Thermo Fisher)[33]. […] Western blots were prepared and probed for gD as a marker of bound virus and β-actin as a control.

EIF2AK2 = biological target: T20, EIF2AK2 (Homo sapiens, UniProt P19525); experiment: HotSpot kinase assay; assay type: biochemical; settings: read-out: % Enzyme Activity (relative to DMSO controls)
T20 construct: purchased Reaction Biology Corporation
T20 sequence (P19525 whole entry): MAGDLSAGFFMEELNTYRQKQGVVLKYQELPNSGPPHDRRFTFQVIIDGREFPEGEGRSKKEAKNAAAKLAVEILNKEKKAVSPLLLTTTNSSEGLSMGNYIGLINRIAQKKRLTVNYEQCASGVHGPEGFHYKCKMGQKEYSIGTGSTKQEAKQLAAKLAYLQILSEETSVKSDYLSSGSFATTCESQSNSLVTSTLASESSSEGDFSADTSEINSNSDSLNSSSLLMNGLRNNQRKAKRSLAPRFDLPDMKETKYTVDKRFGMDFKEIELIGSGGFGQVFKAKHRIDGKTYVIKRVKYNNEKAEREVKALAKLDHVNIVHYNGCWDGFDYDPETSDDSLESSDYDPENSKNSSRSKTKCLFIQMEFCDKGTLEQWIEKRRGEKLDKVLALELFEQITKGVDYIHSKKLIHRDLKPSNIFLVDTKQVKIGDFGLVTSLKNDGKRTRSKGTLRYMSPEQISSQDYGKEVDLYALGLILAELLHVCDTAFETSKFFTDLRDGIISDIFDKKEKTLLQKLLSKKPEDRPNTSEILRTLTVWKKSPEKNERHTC

STK38L/NDR2 = biological target: T21, STK38L/NDR2 (Homo sapiens, UniProt Q9Y2H1); experiment: HotSpot kinase assay; assay type: biochemical; settings: read-out: % Enzyme Activity (relative to DMSO controls)
T21 construct: purchased Reaction Biology Corporation

CDK7/cyclin H = biological target: T22, CDK7/cyclin H (Homo sapiens, UniProt P50613); experiment: HotSpot kinase assay; assay type: biochemical; settings: read-out: % Enzyme Activity (relative to DMSO controls)
T22 construct: purchased Reaction Biology Corporation

ULK3 = biological target: T23, ULK3 (Homo sapiens, UniProt Q6PHR2); experiment: HotSpot kinase assay; assay type: biochemical; settings: read-out: % Enzyme Activity (relative to DMSO controls)
T23 construct: purchased Reaction Biology Corporation

BMPR2 = biological target: T24, BMPR2 (Homo sapiens, UniProt Q13873); experiment: HotSpot kinase assay; assay type: biochemical; settings: read-out: % Enzyme Activity (relative to DMSO controls)
T24 construct: purchased Reaction Biology Corporation

ABL2/ARG = biological target: T25, ABL2/ARG (Homo sapiens, UniProt P42684); experiment: HotSpot kinase assay; assay type: biochemical; settings: read-out: % Enzyme Activity (relative to DMSO controls)
T25 construct: purchased Reaction Biology Corporation

GCK/MAP4K2 = biological target: T26, GCK/MAP4K2 (Homo sapiens, UniProt Q12851); experiment: HotSpot kinase assay; assay type: biochemical; settings: read-out: % Enzyme Activity (relative to DMSO controls)
T26 construct: purchased Reaction Biology Corporation

NLK = biological target: T27, NLK (Homo sapiens, UniProt Q9UBE8); experiment: HotSpot kinase assay; assay type: biochemical; settings: read-out: % Enzyme Activity (relative to DMSO controls)
T27 construct: purchased Reaction Biology Corporation

LATS2 = biological target: T28, LATS2 (Homo sapiens, UniProt Q9NRM7); experiment: HotSpot kinase assay; assay type: biochemical; settings: read-out: % Enzyme Activity (relative to DMSO controls)
T28 construct: purchased Reaction Biology Corporation

CAMK1a = biological target: T29, CAMK1a (Homo sapiens, UniProt Q14012); experiment: HotSpot kinase assay; assay type: biochemical; settings: read-out: % Enzyme Activity (relative to DMSO controls)
T29 construct: purchased Reaction Biology Corporation

MELK = biological target: T30, MELK (Homo sapiens, UniProt Q14680); experiment: HotSpot kinase assay; assay type: biochemical; settings: read-out: % Enzyme Activity (relative to DMSO controls)
T30 construct: purchased Reaction Biology Corporation

MARK2/PAR-1Ba = biological target: T31, MARK2/PAR-1Ba (Homo sapiens, UniProt Q7KZI7); experiment: HotSpot kinase assay; assay type: biochemical; settings: read-out: % Enzyme Activity (relative to DMSO controls)
T31 construct: purchased Reaction Biology Corporation

SSTK/TSSK6 = biological target: T32, SSTK/TSSK6 (Homo sapiens, UniProt Q9BXA6); experiment: HotSpot kinase assay; assay type: biochemical; settings: read-out: % Enzyme Activity (relative to DMSO controls)
T32 construct: purchased Reaction Biology Corporation
T32 sequence (Q9BXA6 whole entry): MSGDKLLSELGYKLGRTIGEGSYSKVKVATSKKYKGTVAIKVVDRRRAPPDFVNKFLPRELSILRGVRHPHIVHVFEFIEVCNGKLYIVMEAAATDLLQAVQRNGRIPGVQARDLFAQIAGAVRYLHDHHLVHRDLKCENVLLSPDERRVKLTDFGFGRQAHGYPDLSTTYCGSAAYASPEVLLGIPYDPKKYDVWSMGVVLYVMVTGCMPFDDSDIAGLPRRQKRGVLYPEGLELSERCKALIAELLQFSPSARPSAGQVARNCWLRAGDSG

DCAMKL2 = biological target: T33, DCAMKL2 (Homo sapiens, UniProt Q8N568); experiment: HotSpot kinase assay; assay type: biochemical; settings: read-out: % Enzyme Activity (relative to DMSO controls)
T33 construct: purchased Reaction Biology Corporation
T33 sequence (Q8N568 whole entry): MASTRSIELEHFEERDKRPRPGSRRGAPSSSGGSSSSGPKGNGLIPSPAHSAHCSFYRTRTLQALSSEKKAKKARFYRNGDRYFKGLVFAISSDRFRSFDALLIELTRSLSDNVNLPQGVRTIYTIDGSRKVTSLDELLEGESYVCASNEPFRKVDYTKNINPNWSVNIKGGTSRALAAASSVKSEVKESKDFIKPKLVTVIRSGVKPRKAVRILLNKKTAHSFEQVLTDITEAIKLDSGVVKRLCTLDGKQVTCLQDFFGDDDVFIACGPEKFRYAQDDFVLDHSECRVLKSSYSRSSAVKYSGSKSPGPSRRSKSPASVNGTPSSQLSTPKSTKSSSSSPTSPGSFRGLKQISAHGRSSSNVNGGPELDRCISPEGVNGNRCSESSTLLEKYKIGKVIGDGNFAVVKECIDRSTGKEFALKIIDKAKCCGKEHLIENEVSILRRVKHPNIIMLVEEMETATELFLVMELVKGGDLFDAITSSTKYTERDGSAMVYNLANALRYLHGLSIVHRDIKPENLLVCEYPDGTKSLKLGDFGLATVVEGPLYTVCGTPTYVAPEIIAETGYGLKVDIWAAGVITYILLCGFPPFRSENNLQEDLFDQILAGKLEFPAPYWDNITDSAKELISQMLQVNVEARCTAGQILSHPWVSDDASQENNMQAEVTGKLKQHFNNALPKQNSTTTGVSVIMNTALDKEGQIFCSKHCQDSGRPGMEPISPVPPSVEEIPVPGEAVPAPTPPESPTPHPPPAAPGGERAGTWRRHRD

## CO[C@@H]1[C@H](N(C)C(=O)CCC(=O)NCc2cn(CCCS(=O)(=O)O)nn2)C[C@H]2O[C@]1(C)n1c3ccccc3c3c4c(c5c6ccccc6n2c5c31)C(=O)NC4 [CIMSS]
mTOR/FRAP1
  remaining activity at 10 µM: 112%
ALK4/ACVR1B
  remaining activity at 10 µM: 58.3%
TESK1
  remaining activity at 10 µM: 83%
LCK2/ICK
  remaining activity at 10 µM: 4.57%
ROS/ROS1
  remaining activity at 10 µM: 4.57%
FLT1/VEGFR1
  remaining activity at 10 µM: 2.92%
PDGFRb
  remaining activity at 10 µM: 1.9%
CK2a2
  remaining activity at 10 µM: 44.6%
STK39/STLK3
  remaining activity at 10 µM: 19.6%
PKCnu/PRKD3
  remaining activity at 10 µM: 11.4%
LATS1
  remaining activity at 10 µM: 9.89%
VSV-S
  VSV-S infection: inhibited
LIMK1
  remaining activity at 10 µM: 0.88%
HaCat cells; 24 h
  viability, odu as a percentage of the DMSO control: 123% and 93.2% and 107%
HaCat cells; 120 h
  viability, odu as a percentage of the DMSO control: 88.4% and 84%
HaCat cells; up to 120 h
  cytotoxicity: little or no cytotoxicity
[1]
  viability at 120 h, 10 µM: 98%
CDK6/cyclin D1
  remaining activity at 10 µM: 63%
NEK1
  remaining activity at 10 µM: 5.88%
CK2a
  remaining activity at 10 µM: 71.4%
CDK9/cyclin T2
  remaining activity at 10 µM: 8.55%
PLSCR1
  Phosphorylation of PLSCR1: not
CLK2
  remaining activity at 10 µM: 4.13%
BRSK2
  remaining activity at 10 µM: 1.66%
GRK5
  remaining activity at 10 µM: 7.35%
HSV-2(G)
  inhibition at 10 µM: > 75%
EIF2AK2
  remaining activity at 10 µM: 9.89%
STK38L/NDR2
  remaining activity at 10 µM: 22.7%
CDK7/cyclin H
  remaining activity at 10 µM: 65.6%
ULK3
  remaining activity at 10 µM: 14.2%
BMPR2
  remaining activity at 10 µM: 50.4%
ABL2/ARG
  remaining activity at 10 µM: 4.07%
GCK/MAP4K2
  remaining activity at 10 µM: 4.74%
NLK
  remaining activity at 10 µM: 73%
LATS2
  remaining activity at 10 µM: 6.54%
CAMK1a
  remaining activity at 10 µM: 28.7%
MELK
  remaining activity at 10 µM: 1.43%
MARK2/PAR-1Ba
  remaining activity at 10 µM: 2.38%
Akt, PDPK1, PLCγ; 10µM
  levels of phosphorylated Akt (serine 473 and threonine 308) in non-permeabilized cells: reduce levels
Akt, PDPK1, PLCγ; 10 µM, 15 and 30 min following viral infection
  phosphorylation of PDPK1 and PLCγ: inhibited
SSTK/TSSK6
  remaining activity at 10 µM: 95.7%
DCAMKL2
  remaining activity at 10 µM: 87.7%
